# Data reported in article PMC8668026 (ACS infectious diseases, 2021).
# Square brackets hold non-standard residues; d marks the D form. Peptide text beside a SMILES is read from it. * marks the point of attachment. ξ: configuration not given here. ξR = N=C(N)NCCCC(N)C(=O)O; βNA = c1ccc2cc(N*)ccc2c1
# Tests used:
# E. coli BW25113 (WT) = test: MIC, 2-fold broth dilution, E. coli WT; assay type: cell-based, Escherichia coli; conditions: for MIC: Escherichia coli, BW25113, read-out: MIC WT
# E. coli WT-pore = test: MIC, 2-fold broth dilution, hyperporinated WT-pore; assay type: cell-based, Escherichia coli; conditions: for MIC: Escherichia coli, read-out: MIC WT-pore
# E. coli ΔtolC = test: MIC, 2-fold broth dilution, efflux-deficient ΔtolC; assay type: cell-based, Escherichia coli; conditions: average of two replicates
# E. coli ΔtolC-pore = test: MIC, 2-fold broth dilution, ΔtolC-pore; assay type: cell-based, Escherichia coli; conditions: average of two replicates
# E. coli WT-pore cells = test: Checkerboard potentiation of novobiocin/erythromycin; assay type: cell-based, Escherichia coli
# A549 cells = test: MTS cytotoxicity assay; assay type: cell-based, human; conditions: average of two replicates
# E. cloacae ATCC13047 [1] = test: MIC in E. cloacae; assay type: cell-based, Enterobacter cloacae
# E. cloacae ATCC13047 [2] = test: Potentiation of NOV, ERY, CIP in E. cloacae; assay type: cell-based, Enterobacter cloacae
# K. pneumoniae ATCC13883 [3] = test: MIC in K. pneumoniae; assay type: cell-based, Klebsiella pneumoniae
# K. pneumoniae ATCC13883 [4] = test: Potentiation of NOV, ERY, CIP in K. pneumoniae; assay type: cell-based, Klebsiella pneumoniae
# AcrAB−TolC = AcrAB−TolC (Escherichia coli, UniProt P0AE06+P31224); conditions: steady-state Nile Red accumulation in WT-pore cells with 32 μM vs 0 μM compound
# AcrA [5] = target: T1, AcrA (Escherichia coli, UniProt P0AE06); conditions: periplasm of WT-pore cells; trypsin; accumulation of K46-K346 fragment
# AcrB = AcrB (Escherichia coli, UniProt P31224); conditions: read-out: KD AcrB; SPR; ref [38] and [47]; cited from earlier work
# AcrA [6] = target: T1, AcrA; conditions: read-out: KD AcrA; SPR; ref [38] and [47]; cited from earlier work
# [7] = Enterobacter cloacae, ATCC13047
# [8] = Klebsiella pneumoniae, ATCC13883
# T1 sequence (P0AE06 25-397): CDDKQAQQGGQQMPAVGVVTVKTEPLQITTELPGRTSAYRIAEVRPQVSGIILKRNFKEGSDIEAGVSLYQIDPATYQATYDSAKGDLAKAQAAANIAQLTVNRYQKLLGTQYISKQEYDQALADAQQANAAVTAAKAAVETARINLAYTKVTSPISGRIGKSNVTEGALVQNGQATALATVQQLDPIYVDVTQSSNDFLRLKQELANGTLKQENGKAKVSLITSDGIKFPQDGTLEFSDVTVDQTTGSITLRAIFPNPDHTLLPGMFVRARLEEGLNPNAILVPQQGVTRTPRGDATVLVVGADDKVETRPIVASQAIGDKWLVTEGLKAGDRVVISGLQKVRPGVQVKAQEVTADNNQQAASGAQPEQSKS
# AcrB, sequence (P31224 whole entry): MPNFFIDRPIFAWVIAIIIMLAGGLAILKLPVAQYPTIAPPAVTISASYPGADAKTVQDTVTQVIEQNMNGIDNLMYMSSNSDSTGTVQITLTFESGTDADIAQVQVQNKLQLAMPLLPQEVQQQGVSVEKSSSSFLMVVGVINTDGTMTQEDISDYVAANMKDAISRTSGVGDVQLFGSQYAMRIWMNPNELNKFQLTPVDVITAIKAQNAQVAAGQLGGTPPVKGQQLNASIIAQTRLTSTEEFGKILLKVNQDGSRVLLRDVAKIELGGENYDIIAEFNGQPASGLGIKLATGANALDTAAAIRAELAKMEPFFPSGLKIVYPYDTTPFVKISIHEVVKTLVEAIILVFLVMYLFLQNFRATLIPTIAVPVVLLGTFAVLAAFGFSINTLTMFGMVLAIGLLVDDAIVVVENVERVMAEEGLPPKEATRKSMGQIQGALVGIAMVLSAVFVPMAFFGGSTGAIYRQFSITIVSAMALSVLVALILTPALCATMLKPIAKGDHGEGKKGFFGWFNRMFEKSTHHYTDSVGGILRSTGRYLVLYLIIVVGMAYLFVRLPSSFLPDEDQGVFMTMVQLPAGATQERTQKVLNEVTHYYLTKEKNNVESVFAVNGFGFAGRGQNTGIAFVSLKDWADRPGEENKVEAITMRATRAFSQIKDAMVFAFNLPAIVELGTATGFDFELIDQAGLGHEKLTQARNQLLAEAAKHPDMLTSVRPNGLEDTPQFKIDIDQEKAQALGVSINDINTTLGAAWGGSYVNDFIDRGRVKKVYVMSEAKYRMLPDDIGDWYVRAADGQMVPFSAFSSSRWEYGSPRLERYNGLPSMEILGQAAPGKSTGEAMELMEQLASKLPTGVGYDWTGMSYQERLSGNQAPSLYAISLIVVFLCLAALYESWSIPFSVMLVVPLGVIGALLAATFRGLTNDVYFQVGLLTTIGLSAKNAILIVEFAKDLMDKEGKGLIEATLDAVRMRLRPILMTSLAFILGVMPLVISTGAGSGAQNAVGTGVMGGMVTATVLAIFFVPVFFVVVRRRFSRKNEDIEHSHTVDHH
# AcrAB−TolC, sequence (P31224 whole entry, the tested form may be a part): as the sequence (P31224 whole entry) above
# AcrAB−TolC, sequence (P0AE06 25-397): as the sequence (P0AE06 25-397) above
# AcrAB−TolC, sequence (P02930 23-493, further chain): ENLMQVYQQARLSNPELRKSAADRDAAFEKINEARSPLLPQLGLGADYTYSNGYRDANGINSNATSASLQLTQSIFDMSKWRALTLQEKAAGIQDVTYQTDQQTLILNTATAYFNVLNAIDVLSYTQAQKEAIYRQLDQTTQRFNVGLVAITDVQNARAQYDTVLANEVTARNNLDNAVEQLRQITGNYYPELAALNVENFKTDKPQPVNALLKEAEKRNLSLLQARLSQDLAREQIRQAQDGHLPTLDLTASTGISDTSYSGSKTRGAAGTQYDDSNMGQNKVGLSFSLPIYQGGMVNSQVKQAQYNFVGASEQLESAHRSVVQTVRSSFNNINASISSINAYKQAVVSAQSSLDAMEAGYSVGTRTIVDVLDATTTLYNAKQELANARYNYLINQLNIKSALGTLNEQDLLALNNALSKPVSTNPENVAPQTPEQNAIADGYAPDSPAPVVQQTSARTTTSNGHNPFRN
structure (smiles),measurement,setting,value
Cc1cc(N)c2cc(NC(=O)/C=C/c3ccccc3Cl)ccc2n1 [Compound 2],MIC WT,"E. coli BW25113 (WT); E. coli WT, average of two replicates",200 µM
same,MIC WT-pore,"E. coli WT-pore; E. coli hyperporinated WT-pore, average of two replicates",100 µM
same,MIC ΔtolC,E. coli ΔtolC,12.5 µM
same,MIC ΔtolC-pore,E. coli ΔtolC-pore,12.5 µM
same,potentiation MPC4 (ERY),E. coli WT-pore cells; minimum concentration reducing MIC of erythromycin 4-fold,3.1 µM
same,potentiation MPC4 (NOV),E. coli WT-pore cells; minimum concentration reducing MIC of novobiocin 4-fold,1.56 µM
same,CC50,A549 cells,10 µM
same,MIC,"E. cloacae ATCC13047 [1]; E. cloacae ATCC13047, test compounds, average of two replicates",>100 µM
same,fold MIC (CIP),E. cloacae ATCC13047 [2],1
same,fold MIC (ERY),E. cloacae ATCC13047 [2],8
same,fold MIC (NOV),E. cloacae ATCC13047 [2],64
same,MIC,"K. pneumoniae ATCC13883 [3]; K. pneumoniae ATCC13883, test compounds, average of two replicates",>100 µM
same,fold MIC (NOV),K. pneumoniae ATCC13883 [4],64
same,"efflux inhibition, SS ratio 32 μM/0 μM",AcrAB−TolC,6.5
same,effect on proteolytic profile of AcrA,AcrA [5],did not affect the proteolytic profiles of AcrA
"CC[C@H]1OC(=O)[C@H](C)[C@@H](O[C@H]2C[C@@](C)(OC)[C@@H](O)[C@H](C)O2)[C@H](C)[C@@H](O[C@@H]2O[C@H](C)C[C@H](N(C)C)[C@H]2O)[C@](C)(O)C[C@@H](C)C(=O)[C@H](C)[C@@H](O)[C@]1(C)O [ERY, erythromycin]",MIC,E. coli BW25113 (WT),64 µM
same,MIC,E. coli WT-pore,4 to 8 µM
same,MIC ΔtolC,E. coli ΔtolC,2 µM
same,MIC,E. cloacae ATCC13047 [1]; [7],400 µg/mL
same,MIC,K. pneumoniae ATCC13883 [3]; [8],400 µg/mL
NC(N)=NCCCC(NC(=O)[C@@H](N)Cc1ccccc1)C(=O)Nc1ccc2ccccc2c1 (stereo partly shown) [MC] (H-Phe-[ξR]-βNA),Kd,AcrB,110 µM
"CO[C@@H]1[C@@H](OC(N)=O)[C@@H](O)[C@H](Oc2ccc3c(O)c(NC(=O)c4ccc(O)c(CC=C(C)C)c4)c(=O)oc3c2C)OC1(C)C [NOV, novobiocin]",MIC,E. coli BW25113 (WT),128 µM
same,MIC,E. coli WT-pore,32 to 64 µM
same,MIC ΔtolC,E. coli ΔtolC,0.5 µM
same,MIC ΔtolC-pore,E. coli ΔtolC-pore,0.125 µM
same,MIC,E. cloacae ATCC13047 [1]; [7],400 µg/mL
same,MIC,K. pneumoniae ATCC13883 [3]; [8],50 µg/mL
same,Kd,AcrA [6],40 µM
